Data taken from patent US20250163522A1, “METHODS FOR PRESERVING HEALTHY INTESTINAL MICROBIOME DURING GROWTH PROMOTER ADMINSTRATION” (BIOMEDIT, LLC, priority 2022, published 2025).
Entries after “also recorded” stand apart in the source; their conditions may differ.

System: cecal microbiome
Assay: Shotgun metagenomics (functional/taxonomic profiles, GSEA) of cecal microbiome, day 35 broilers
Format: in vivo, chickens (Gallus gallus)
Conditions: day 35 cecal samples
Experimental: 74 frozen cecal samples from day 35 birds were sent to CosmosID (Rockville, MD) for shotgun metagenomics sequencing. DNA was extracted using the ZymoBIOMICS DNA Miniprep Kit (ZymoBIOMICS, Irvine, CA) according to the manufacturers protocol. The isolated DNA was quantified by Qbit (ThermoFisher, Coon Rapids, MN). DNA libraries were prepared using the Illumina Nextera XT library preparation kit (Illumina, San Diego, CA), with a modified protocol. Libraries were then sequenced on an Illumina HiSeq platform 2×150 bp.
Reads were trimmed and Illumina adapters removed using Trimmomatic (v 0.39) (Bolger et al., Bioinformatics 30, 2114-2120 (2014)) with options SLIDINGWINDOW:5:20 LEADING:3 TRAILING:3. Host reads (Gallus gallus, GenBank assembly GCA_000002315) and spike-in reads from Vibrio harveyii (ATCC 14126) were removed using Bowtie2 (v. 2.3.5.1) (Langmead et al., Nat Methods 9, 357-359 (2012)).
Taxonomic profiling of individual reads was carried out using Kaiju (v. 1.7.3) (Menzel et al., Nat Commun 7, 11257 (2016)) with the nr_euk database. Kaiju outputs were summarized for each read as the number of bases aligned to proteins in the reference database. In cases of individual reads mapping to more than one taxonomic group, the number of bases assigned to each taxon was calculated as the alignment length (in base pairs) multiplied by the fraction of bases assigned unambiguously to said taxon out of all the taxa to which the read mapped. The numbers of assigned bases per read were used to estimate species-level relative abundances using metametamerge (v. 1.1) (Piro, V. C., et al., Microbiome 5, 101 (2017).) taking into account the average coding length per species in the nr_euk database.
Functional profiling was done by first assembling the reads from each sample into contigs using Spades (v. 3.13.1, option --meta) (Nurk, S. et al., Genome Res 27, 824-834 (2017)), with default parameters, followed by protein prediction with Prokka (v. 1.14.5) (Seemann, T. Prokka: Bioinformatics 30, 2068-2069 (2014).). Predicted protein sequences were aligned to a reference database and using Diamond (v. 0.9.30) (Buchfink, B. et al. Nat Methods 18, 366-368 (2021)) and annotated based on the function assigned to the top hit in the database. To avoid misannotations, (Plata, G. et al. Nat Chem Biol 8, 848-854 (2012)) the inventors only considered hits with at least 70% identity and 70% query coverage. The reference database was built starting from 46,181 complete bacterial genomes downloaded from the PATRIC (Davis, J. J. et al. Nucleic Acids Res 48, D606-D612 (2020)) database representing at most 10 genomes per species from ˜400 taxonomic families including those most frequently observed in broiler microbiomes. To speed up functional annotations, protein sequences within each family in the database were clustered at 90% sequence identity using CD-HIT (v. 4.8.1) (Huang, Y. et al. Bioinformatics 26, 680-682 (2010)) and the longest sequence from each cluster was kept for the diamond search.
To quantify the abundance of each function per sample, reads were mapped to the corresponding contigs using BWA (v. 0.7.17) (Li, H. & Durbin, R. Bioinformatics 25, 1754-1760 (2009)), and reads mapping to each predicted protein were counted with HTseq (v. 0.11.3) (Anders, S. et al. Bioinformatics 31, 166-169 (2015)). Read counts per RAST functional role were TPM normalized based on the Prokka protein lengths (Zhao, S. et. al. RNA 26, 903-909 (2020)) and expressed in units of mean copy numbers per genome by calculating a normalization factor such that the median abundance of a set of universal-single copy bacterial genes (Creevey, C. J. et al. PLOS One 6, e22099 (2011)) was set to 1 (Manor, O. & Borenstein, E. Genome Biology 16, 53 (2015)). A similar procedure was used to produce a copy-number normalized matrix of functional roles across samples stratified by the bacterial genera of the protein hits used to transfer functional annotations. […]

With `CC[C@@H](C(=O)O)[C@@H]1O[C@@H]([C@@H](C)[C@H](O)[C@H](C)C(=O)[C@H](CC)[C@H]2O[C@]3(C=C[C@@H](O)[C@]4(CC[C@@](C)([C@H]5CC[C@](O)(CC)[C@H](C)O5)O4)O3)[C@H](C)C[C@@H]2C)[C@@H](C)C[C@@H]1C` [narasin] the “functional processes depleted in cecal microbiome relative to controls (GSEA)” value was “utilization of mucin polysaccharides as well as cell matrix components including sialic acid, N-acetylneuraminate and hyaluronic acid” and the “functional processes enriched in cecal microbiome relative to controls (GSEA)” value was “propanediol utilization, molybdenum-containing cofactor synthesis and CO2 fixation via the Wood-Ljungdahl pathway; also recorded: Tryptophan synthesis, urea degradation, heme and tetrapyrrole biosynthesis, and xylose utilization”.
